Assay [1] concerns the target T1, Gonadotropin-releasing hormone receptor (Rattus norvegicus, UniProt P30969).
T1 sequence (P30969 whole entry): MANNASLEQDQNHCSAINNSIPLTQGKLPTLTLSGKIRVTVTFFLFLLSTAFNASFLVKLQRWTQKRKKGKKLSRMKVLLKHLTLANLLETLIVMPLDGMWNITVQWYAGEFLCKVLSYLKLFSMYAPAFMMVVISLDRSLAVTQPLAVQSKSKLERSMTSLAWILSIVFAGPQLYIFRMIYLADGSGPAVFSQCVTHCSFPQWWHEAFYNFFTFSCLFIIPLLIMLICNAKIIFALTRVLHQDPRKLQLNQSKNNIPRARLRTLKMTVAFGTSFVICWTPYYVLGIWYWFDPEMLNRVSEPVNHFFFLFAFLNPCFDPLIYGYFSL
The assay can be described thus: Binding affinity at Leutinizing releasing hormone receptor in rat pituitary using [125I]leuprolide as radioligand.

The species named for another assay is Rattus norvegicus. The assay can be described thus: Antagonism of leuprolide-induced release of luteinizing hormone from rat pituitary cell. To be noted: Pituitary gland cell, read-out: pA2 (converted). It is filed as functional.
In assay [2] the target is T1, Gonadotropin-releasing hormone receptor. Description: Binding affinity at LH-RH receptor in rat pituitary using [125I]leuprolide as radioligand.
The target is the same in assay [3]. Description: Dissociation constant was determined in vitro using rat pituitary membranes and [125I]leuprolide as radioligand, at concentration 3.16*10e-5 M. It is filed as cell membranes.
For assay [4] the target is unchanged. Description: Dissociation constant was determined in vitro using rat pituitary membranes, at concentration 1.0*10e-5 M. It is filed as cell membranes.
The target of assay [5] is T2, Gonadotropin-releasing hormone receptor (Rattus norvegicus) (UniProt P30969).
T2 sequence (whole entry): T1 sequence (P30969 whole entry)
The assay can be described thus: Apparent receptor density at 3.16*10e-5 M concentration.

The target of assay [6] is T2, Gonadotropin-releasing hormone receptor (Rattus norvegicus). The assay can be described thus: Apparent receptor density at 1.0*10e-5 M concentration.
The target is the same in assay [7]. The assay can be described thus: Apparent receptor density at 3.16*10e-6 M concentration.
The target in assay [8] is T1, Gonadotropin-releasing hormone receptor. Description: Dissociation constant was determined in vitro using rat pituitary membranes and [125I]-leuprolide as radioligand, at concentration 3.16*10e-6 M. It is filed as cell membranes.

Some results are limits rather than exact numbers.

As usually defined, the IC50 is the midpoint of a concentration-inhibition curve. High values mean lower potency, low ones higher potency. In assay [1], `Clc1ccc([C@@]2(Cn3ccnc3)OC[C@H](COc3ccccc3)O2)c(Cl)c1` showed a half-maximal inhibitory concentration (IC50) greater than 30000 nM.

As for `CC(C)(C)OC(=O)N[C@@H](Cc1c[nH]c2ccccc12)C(=O)N1CCC[C@H]1C(=O)N[C@@H](CC1=CNCN1)C(=O)NC[C@H]1CO[C@](Cn2ccnc2)(c2ccc(Cl)cc2Cl)O1`, the Kb in the assay listed under Rattus norvegicus is 4570 nM. For the same compound, the IC50 in assay [1] amounted to 500 nM.

In assay [1], `OC[C@H]1CO[C@](Cn2ccnc2)(c2ccc(Cl)cc2Cl)O1` gave an IC50 greater than 30000 nM.

One may read the Kd as the free concentration of one partner at which half of the binding sites on the other are occupied at equilibrium, for simple one-to-one binding. High values mean weaker binding, low ones tighter binding. In assay [2], `CC(=O)N1CCN(c2ccc(OCC3COC(Cn4ccnc4)(c4ccc(Cl)cc4Cl)O3)cc2)CC1` (configuration not stated) [KETOCONAZOLE] gave an IC50 of 2000 nM. Moreover, the Kb in the assay filed under Rattus norvegicus was 64600 nM. Further, the results for the Kd in [3], in [4] and in assay [8] were 811 nM, 0.375 nM and 0.221 nM, respectively. For the same compound, the Bmax worked out at 1.6 pmol/mg in [5], 2.01 pmol/mg in assay [6] and 1.91 pmol/mg in assay [7].

As for `O=C(NC[C@H]1CO[C@](Cn2ccnc2)(c2ccc(Cl)cc2Cl)O1)[C@H](Cc1c[nH]cn1)NC(=O)[C@@H]1CCC(=O)N1C(=O)OCc1ccccc1`, the concentration for half-maximal inhibition (IC50) in assay [1] stood at 2000 nM. This lies in the single-digit micromolar range.

As for `CCC(C)n1ncn(-c2ccc(N3CCN(c4ccc(OC[C@H]5CO[C@](Cn6ccnc6)(c6ccc(Cl)cc6Cl)O5)cc4)CC3)cc2)c1=O` (some centres not stated), the IC50 in assay [1] is greater than 30000 nM.

`O=C1c2ccccc2C(=O)N1C[C@H]1CO[C@](Cn2ccnc2)(c2ccc(Cl)cc2Cl)O1` returned an IC50 in assay [1] greater than 30000 nM.

`Clc1ccc([C@@]2(Cn3ccnc3)OC[C@H](CNCc3c[nH]c4ccccc34)O2)c(Cl)c1` returned an IC50 in assay [1] greater than 30000 nM.

With `O=C(NC[C@H]1CO[C@](Cn2ccnc2)(c2ccc(Cl)cc2Cl)O1)C1CCC(=O)N1C(=O)OCc1ccccc1` (some centres not stated), the IC50 in assay [1] is greater than 30000 nM.

The values are drawn from ChEMBL document CHEMBL1124577, “LH-RH antagonists: design and synthesis of a novel series of peptidomimetics” (J Med Chem, 1989).
